Laboratory results as given in patent US7834242B2, “S-adenosyl-L-methionine synthetase promoter and its use in expression of transgenic genes in plants” (E. I. du Pont de Nemours and Company, priority 2003, dated 2010).

Experiments:
Arabidopsis seeds = system: Arabidopsis seeds
Procedure: (§1) To see if SAMS promoter is regulated by external methionine, the SAMS::GUS transgenic Arabidopsis seeds were germinated in the presence of either H2O, 1× Murashige and Skoog salt (GIBCO BRL), 0.01 mM methionine (Sigma), or 1 mM methionine. Ten days old seedlings from ten independent transgenic lines were analyzed for GUS activity according to the protocol described in Example 5.

SAMS promoter = assay: Induction of SAMS promoter activity by methionine (GUS activity of SAMS::GUS seedlings); format: in vivo, Arabidopsis
Procedure: as §1

soybean plants = assay: Spray test for tolerance to SU herbicide; format: in vivo; conditions: 60 grams active ingredient per hectare
Procedure: Soybean plants, transformed with either pZSL13 or pZSL14, were tested for tolerance to SU herbicide. A spray solution was made containing 60 grams of Thifensulfuron-methyl active ingredient per hectare and 0.25% wt/wt of AL-2999 nonionic surfactant. Thifensulfuron-methyl has the chemical name, methyl 3-[[[[(4-methoxy-6-methyl-1,3,5-triazin-2-yl)amino]carbonyl]amino]sulfonyl]-2-thiophenecarboxylate, and is the active ingredient in the two DuPont sulfonylurea herbicides, HARMONY GT® and PINNACLE®. Either HARMONY GT® or PINNACLE® can be used as the source of this sulfonylurea for the spray test. AL-2999 is a nonionic surfactant, obtainable as ATPLUS UCL 1007® from Uniqema. This mixture was evenly sprayed onto the soybean plants at the 1st or 2nd trifoliate stage of development. After waiting approximately two weeks the results were scored. All wild-type plants (or plants lacking the SAMS:herbicide-resistant ALS transgene) were dead (negative control), all plants from commercially available STS® (Sulfonylurea Tolerant Soybean) seeds were alive (positive control), and plants containing the SAMS:herbicide-resistant ALS transgene from either pZSL13 or pZSL14 also survived. Consequently, either the 1.3-kb (SEQ ID NO:6) or the 2.1-kb (SEQ ID NO:14) fragment from the SAMS gene can drive expression of the mutant ALS gene at levels sufficient to provide tolerance to SU.

[1] = system: transgenic Arabidopsis plants; assay: Fluorometric GUS assay of SAMS::GUS transgenic plants; format: in vivo, Arabidopsis thaliana; conditions: developing seeds of SAMS::GUS Arabidopsis
Procedure: FIG. 5 depicts a fluorometric GUS expression assay of transgenic Arabidopsis plants harboring the SAMS::GUS expression cassette. Triple samples of flowers, leaves, stems, siliques coats, young seeds, medium seeds, old seeds, and dry seeds collected from SAMS::GUS transgenic Arabidopsis plants were assayed for GUS activity. The graph was generated by Microsoft Excel and the standard deviation is indicated by the upper part of each column.
The activity of the soybean SAMS promoter was tested by its ability to express the GUS reporter gene in transgenic Arabidopsis plants carrying the SAMS promoter::GUS::3′ Nos expression casstette. […]
The GUS activities of the transgenic Arabidopsis plants were further analyzed by a fluorometric assay. For fluorescence analysis, plant tissues were ground in microfuge tubes with extraction buffer, 50 mM phosphate buffer, pH 7.0, 10 mM EDTA, 0.1% Triton X-100, 0.1% N-lauroyl sarcosine, and 10 mM β-mercaptoethanol, to homogeneity. The samples were centrifuged at 14,000 rpm for 10 minutes, and aliquots of the supernatant were used to determine protein concentrations by the Bradford method (Bio-Rad, Hercules, Calif.) using 96 well microtiter plates read with a kinetic microplate reader (Molecular Devices, Sunnyvale, Calif.). […] Data were entered into a Microsoft Excel spread sheet and analyzed. […]

CSCC[C@H](N)C(=O)O [methionine]
Toxic effect on seedlings (Arabidopsis seeds; 1 mM methionine): smaller sizes and shorter roots of the seedlings | Toxic effect on germination and survival (Arabidopsis seeds; 10 mM free methionine): only a few Arabidopsis seeds were able to germinate and none survived | SAMS activity induced (GUS activity) compared to H2O treatment (SAMS promoter; 0.01 mM free methionine, ten days old seedlings, ten transgenic lines): more than two-fold | Induction effect of SAMS promoter (SAMS promoter; 1 mM methionine): less than that by 0.01 mM methionine

COC(=O)c1sccc1S(=O)(=O)NC(=O)Nc1nc(C)nc(OC)n1 [Thifensulfuron-methyl, methyl 3-[[[[(4-methoxy-6-methyl-1,3,5-triazin-2-yl)amino]carbonyl]amino]sulfonyl]-2-thiophenecarboxylate]
Plant survival after spray (soybean plants; plants containing SAMS:herbicide-resistant ALS transgene from pZSL13 or pZSL14, approximately two weeks): survived | Plant survival after spray (soybean plants; plants from commercially available STS seeds, approximately two weeks): alive | Plant survival after spray (soybean plants; wild-type plants (lacking transgene), 0.25% AL-2999, scored after approximately two weeks): dead

B1: SAMS promoter: soybean S-adenosyl-L-methionine synthetase promoter fragment, 1314 bp, SEQ ID NO:6 (nucleic acid)
DNA: TCTAGATCAAACTCACATCCAAACATAACATGGATATCTCCTTACCAATCATACTAATTATTTTGGGTTAAATATTAATCATTATTTTTAAGATATTAATTAAGAAATTAAAAGATTTTTTAAAAAAATGTATAAAATTATATTATTCATGATTTTTCATACATTTGATTTTGATAATAAATATATTTTTTTTAATTTCTTAAAAAATGTTGCAAGACACTTATTAGACATAGTCTTGTTCTGTTTACAAAAGCATTCATCATTTAATACATTAAAAAATATTTAATACTAACAGTAGAATCTTCTTGTGAGTGGTGTGGGAGTAGGCAACCTGGCATTGAAACGAGAGAAAGAGAGTCAGAACCAGAAGACAAATAAAAAGTATGCAACAAACAAATCAAAATCAAAGGGCAAAGGCTGGGGTTGGCTCAATTGGTTGCTACATTCAATTTTCAACTCAGTCAACGGTTGAGATTCACTCTGACTTCCCCAATCTAAGCCGCGGATGCAAACGGTTGAATCTAACCCACAATCCAATCTCGTTACTTAGGGGCTTTTCCGTCATTAACTCACCCCTGCCACCCGGTTTCCCTATAAATTGGAACTCAATGCTCCCCTCTAAACTCGTATCGCTTCAGAGTTGAGACCAAGACACACTCGTTCATATATCTCTCTGCTCTTCTCTTCTCTTCTACCTCTCAAGGTACTTTTCTTCTCCCTCTACCAAATCCTAGATTCCGTGGTTCAATTTCGGATCTTGCACTTCTGGTTTGCTTTGCCTTGCTTTTTCCTCAACTGGGTCCATCTAGGATCCATGTGAAACTCTACTCTTTCTTTAATATCTGCGGAATACGCGTTGGACTTTCAGATCTAGTCGAAATCATTTCATAATTGCCTTTCTTTCTTTTAGCTTATGAGAAATAAAATCATTTTTTTTTATTTCAAAATAAACCTTGGGCCTTGTGCTGACTGAGATGGGGTTTGGTGATTACAGAATTTTAGCGAATTTTGTAATTGTACTTGTTTGTCTGTAGTTTTGTTTTGTTTTCTTGTTTCTCATACATTCCTTAGGCTTCAATTTTATTCGAGTATAGGTCACAATAGGAATTCAAACTTTGAGCAGGGGAATTAATCCCTTCCTTCAAATCCAGTTTGTTTGTATATATGTTTAAAAAATGAAACTTTTGCTTTAAATTCTATTATAACTTTTTTTATGGCAAAAATTTTTGCATGTGTCTTTGCTCTCCTGTTGTAAATTTACTGTTTAGGTACTAACTCTAGGCTTGTTGTGCAGTTTTTGAAGTATAACCATGG
modifications: Glycine max
GUS specific activities [1]: 5-40 pmole 4-Mu (4-methylumbelliferone) per microgram protein per minute
